This is an account of results in patent US9433621B2, “Substituted pyridine and pyrimidine derivatives and their use in treating viral infections” (Merck Sharp & Dohme Corp., priority 2010, dated 2016).

The assay has as its system HCV replicon. Briefly: Cell-Based HCV Replicon Assay. The note with it: Hepatitis C virus; HCV Replicon assay, EC90 range, Table VI; read-out: EC90. In a few lines: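 EC50 and EC90 taken from sigmoid fits of ΔCT (5B minus GAPDH) as the concentrations raising ΔCT by 1 and 3.2 over baseline, via multiplex real-time RT-PCR on lysates after 3 days. Replicon cells at 5000/well; 10 two-fold dilutions from 25–1 μM, 0.5% DMSO, 10% FBS.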
The term EC90 denotes the point of the concentration-response curve where the effect stands at 90%. Regarding `Cc1cc(S(=O)(=O)C[C@H]2C[C@@H](Nc3nc(NCCSC(C)(C)C)nc(C)c3-c3nc4c(C)nccc4s3)[C@H](O)[C@@H]2O)ccc1F` [Example 5006], the EC90 was under 0.5 µM. Then `Cc1nc(NCCSC(C)(C)C)nc(N[C@@H]2C[C@H](CS(C)(=O)=O)[C@@H](O)[C@H]2O)c1-c1nc2c(C3CC3)nccc2s1` [Example 5007], with under 0.5 µM; and `Cc1cc(S(=O)(=O)C[C@H]2C[C@@H](Nc3nc(NCC4CC4)nc(C)c3-c3nc4c(C)nccc4s3)[C@H](O)[C@@H]2O)ccc1F` [Example 5008], with under 0.5 µM. Then `Cc1cc(S(=O)(=O)C[C@H]2C[C@@H](Nc3nc(NCC(F)(F)F)nc(C)c3-c3nc4c(C)nccc4s3)[C@H](O)[C@@H]2O)ccc1F` [Example 5009], with under 0.5 µM. Then `Cc1cc(S(=O)(=O)C[C@H]2C[C@@H](Nc3nc(NCC(C)(C)C)nc(C)c3-c3nc4c(C)nccc4s3)[C@H](O)[C@@H]2O)ccc1F` [Example 5010], with under 0.5 µM. On to `COCCNc1nc(C)c(-c2nc3c(C)nccc3s2)c(N[C@@H]2C[C@H](CS(=O)(=O)c3ccc(F)c(C)c3)[C@@H](O)[C@H]2O)n1` [Example 5011], for which the EC90 is under 0.5 µM. `CO[C@H](C)CNc1nc(C)c(-c2nc3c(C)nccc3s2)c(N[C@@H]2C[C@H](CS(=O)(=O)c3ccc(F)c(C)c3)[C@@H](O)[C@H]2O)n1` [Example 5012]: the EC90 is under 0.5 µM. Then `COc1ccc(S(=O)(=O)C[C@H]2C[C@@H](Nc3nc(NCC4CC4)nc(C)c3-c3nc4c(C)nccc4s3)[C@H](O)[C@@H]2O)cc1F` [Example 5013], with under 0.5 µM; and `COc1ccc(S(=O)(=O)C[C@H]2C[C@@H](Nc3nc(NCCSC(C)(C)C)nc(C)c3-c3nc4c(C)nccc4s3)[C@H](O)[C@@H]2O)cc1F` [Example 5014], with under 0.5 µM.

Consider `C#CCCNc1nc(C)c(-c2nc3c(C4CC4)nccc3s2)c(N[C@@H]2C[C@H](CS(C)(=O)=O)[C@@H](O)[C@H]2O)n1` [Example 5015], for which the EC90 is under 0.5 µM. Then `CCc1nccc2sc(-c3c(C)nc(NC4CC4)nc3N[C@@H]3C[C@H](CS(=O)(=O)c4ccc(F)c(C)c4)[C@@H](O)[C@H]3O)nc12` [Example 5016], with under 0.5 µM; and `CCc1nccc2sc(-c3c(C)nc(NCC4CC4)nc3N[C@@H]3C[C@H](CS(=O)(=O)c4ccc(F)c(C)c4)[C@@H](O)[C@H]3O)nc12` [Example 5017], with under 0.5 µM.

On to `CCc1nccc2sc(-c3c(C)nc(NCC(C)(C)C)nc3N[C@@H]3C[C@H](CS(=O)(=O)c4ccc(F)c(C)c4)[C@@H](O)[C@H]3O)nc12` [Example 5018], for which the EC90 was under 0.5 µM.

As for `CCc1nccc2sc(-c3c(C)nc(NCC(F)(F)F)nc3N[C@@H]3C[C@H](CS(=O)(=O)c4ccc(F)c(C)c4)[C@@H](O)[C@H]3O)nc12` [Example 5019], the EC90 was under 0.5 µM. As for `Cc1cc(S(=O)(=O)C[C@H]2C[C@@H](Nc3nc(N)nc(C)c3-c3nc4c(C)nccc4s3)[C@H](O)[C@@H]2O)ccc1F` [Example 5020], the figure is under 0.5 µM; as for `CCc1nccc2sc(-c3c(C)nc(N)nc3N[C@@H]3C[C@H](CS(=O)(=O)c4ccc(F)c(C)c4)[C@@H](O)[C@H]3O)nc12` [Example 5021], under 0.5 µM.

With `CCNC(=O)N[C@H]1C[C@@H](Nc2nc(N[C@H](C)C3CC3)nc(C)c2-c2nc3c(C4CC4)nccc3s2)[C@H](O)[C@@H]1O` [Example 5022], the EC90 is under 0.5 µM.

As for `Cc1nc(N[C@H](C)C2CC2)nc(N[C@@H]2C[C@H](NC(=O)NCc3ccc(F)cc3)[C@@H](O)[C@H]2O)c1-c1nc2c(C3CC3)nccc2s1` [Example 5023], the EC90 was under 0.5 µM. Regarding `CCNC(=S)N[C@H]1C[C@@H](Nc2nc(N[C@H](C)C3CC3)nc(C)c2-c2nc3c(C4CC4)nccc3s2)[C@H](O)[C@@H]1O` [Example 5024], the EC90 was under 0.5 µM. With `CNS(=O)(=O)C[C@H]1C[C@@H](Nc2nc(NCC3CC3)nc(C)c2-c2nc3c(C)nccc3s2)[C@H](O)[C@@H]1O` [Example 5025], the EC90 was under 0.5 µM. Then `CNS(=O)(=O)C[C@H]1C[C@@H](Nc2nc(NCC3CC3)nc(C)c2-c2nc3c(C)nc(C)cc3s2)[C@H](O)[C@@H]1O` [Example 5026], with under 0.5 µM; and `CNS(=O)(=O)C[C@H]1C[C@@H](Nc2nc(NC3CC3)nc(C)c2-c2nc3c(C)nc(C)cc3s2)[C@H](O)[C@@H]1O` [Example 5027], with under 0.5 µM. As for `Cc1nc(N[C@H](C)c2c(F)c(F)c(C)c(F)c2F)nc(N[C@@H]2C[C@H](C(C)(C)O)[C@@H](O)[C@H]2O)c1-c1nc2c(N)nccc2s1` [Example 5028], the figure is under 0.5 µM. For `Cc1nc(N)nc(N[C@@H]2C[C@H](C(C)(C)O)[C@@H](O)[C@H]2O)c1-c1nc2c(N)nccc2s1` [Example 5029], the EC90 was under 0.5 µM.

On to `Cc1nc(NC2(C(C)C)CC2)nc(N[C@@H]2C[C@H](C(C)(C)O)[C@@H](O)[C@H]2O)c1-c1nc2c(C)nccc2s1` [Example 5030], for which the EC90 fell in the range of 0.5 to 5 µM. Take `Cc1nc(NC2(CC(C)C)CC2)nc(N[C@@H]2C[C@H](C(C)(C)O)[C@@H](O)[C@H]2O)c1-c1nc2c(C)nccc2s1` [Example 5031]: the concentration for an effect of 90% (EC90) lay within 0.5 to 5 µM. As for `Cc1nc(NC2COC3(CCCCC3)C2)nc(N[C@@H]2C[C@H](C(C)(C)O)[C@@H](O)[C@H]2O)c1-c1nc2c(C)nccc2s1` (stereo partly shown) [Example 5032], the figure is under 0.5 µM; as for `CO[C@H](C)CNc1nc(C)c(-c2nc3c(C)nccc3s2)c(N[C@@H]2C[C@H](COc3c(F)ccc(F)c3F)[C@@H](O)[C@H]2O)n1` [Example 5033], under 0.5 µM; as for `CO[C@H](C)CNc1nc(C)c(-c2nc3c(C)nccc3s2)c(N[C@@H]2C[C@H](COc3cc(F)c(F)cc3F)[C@@H](O)[C@H]2O)n1` [Example 5034], under 0.5 µM. As for `Cc1nc(NCC(F)(F)C(F)(F)F)nc(N[C@@H]2C[C@H](C(C)(C)O)[C@@H](O)[C@H]2O)c1-c1nc2c(N)nccc2s1` [Example 5035], the figure is under 0.5 µM; as for `COCCNc1nc(C)c(-c2nc3c(C)nccc3s2)c(N[C@@H]2C[C@H](C(C)(C)NS(C)(=O)=O)[C@@H](O)[C@H]2O)n1` [Example 5036], under 0.5 µM.

Consider `COC[C@@H](C)Nc1nc(C)c(-c2nc3c(C)nccc3s2)c(N[C@@H]2C[C@H](C(C)(C)NS(C)(=O)=O)[C@@H](O)[C@H]2O)n1` [Example 5037], for which the EC90 was under 0.5 µM. As for `CO[C@H](C)CNc1nc(C)c(-c2nc3c(C)nccc3s2)c(N[C@@H]2C[C@H](C(C)(C)NS(C)(=O)=O)[C@@H](O)[C@H]2O)n1` [Example 5038], the figure is under 0.5 µM; as for `Cc1nc(NCCSC(C)(C)C)nc(N[C@@H]2C[C@H](C(C)(C)NS(C)(=O)=O)[C@@H](O)[C@H]2O)c1-c1nc2c(C)nccc2s1` [Example 5039], under 0.5 µM; as for `COC[C@@H](C)Nc1nc(C)c(-c2nc3c(C)nccc3s2)c(N[C@@H]2C[C@H](C(C)(C)NC(=O)OC)[C@@H](O)[C@H]2O)n1` [Example 5040], under 0.5 µM. Regarding `COC(=O)NC(C)(C)[C@H]1C[C@@H](Nc2nc(NC[C@@H](C)OC)nc(C)c2-c2nc3c(C)nccc3s2)[C@H](O)[C@@H]1O` [Example 5041], the EC90 is under 0.5 µM. Then `COCCNc1nc(C)c(-c2nc3c(C)nccc3s2)c(N[C@@H]2C[C@H](C(C)(C)NC(=O)OC)[C@@H](O)[C@H]2O)n1` [Example 5042], with under 0.5 µM.
